Data taken from US20120316186A1, “DEAZAPURINES USEFUL AS INHIBITORS OF JANUS KINASES” (priority 2006, published 2012).
pKi: −log10 of the molar value.

Assays:
JAK2 = JAK2 (Homo sapiens, UniProt O60674); test: JAK2 Inhibition Assay; assay type: biochemical; conditions: 15 μM poly(Glu)4Tyr, 12 μM ATP; read-out: JAK2 enzyme inhibition data (Ki)
Description: (§1) Compounds were screened for their ability to inhibit JAK3 using the assay shown below. Reactions were carried out in a kinase buffer containing 100 mM HEPES (pH 7.4), 1 mM DTT, 10 mM MgCl2, 25 mM NaCl, and 0.01% BSA. Substrate concentrations in the assay were 5 μM ATP (200 uCi/μmole ATP) and 1 μM poly(Glu)4Tyr. Reactions were carried out at 25° C. and 1 nM JAK3.
(§2) To each well of a 96 well polycarbonate plate was added 1.5 μl of a candidate JAK3 inhibitor along with 50 μl of kinase buffer containing 2 μM poly(Glu)4Tyr and 10 μM ATP. This was then mixed and 50 μl of kinase buffer containing 2 nM JAK3 enzyme was added to start the reaction. After 20 minutes at room temperature (25° C.), the reaction was stopped with 50 μl of 20% trichloroacetic acid (TCA) that also contained 0.4 mM ATP. The entire contents of each well were then transferred to a 96 well glass fiber filter plate using a TomTek Cell Harvester. After washing, 60 μl of scintillation fluid was added and ^33P incorporation detected on a Perkin Elmer TopCount.
The assays were as described above in Example 36 except that JAK-2 enzyme was used, the final poly(Glu)4Tyr concentration was 15 μM, and final ATP concentration was 12 μM.

JAK3 = target: T1, JAK3 (Homo sapiens, UniProt P52333); test: JAK3 Inhibition Assay; assay type: biochemical; conditions: 1 μM poly(Glu)4Tyr, 5 μM ATP, 1 nM JAK3, 25° C.; read-out: JAK3 enzyme inhibition data (Ki)
T1 sequence (P52333 1-1124): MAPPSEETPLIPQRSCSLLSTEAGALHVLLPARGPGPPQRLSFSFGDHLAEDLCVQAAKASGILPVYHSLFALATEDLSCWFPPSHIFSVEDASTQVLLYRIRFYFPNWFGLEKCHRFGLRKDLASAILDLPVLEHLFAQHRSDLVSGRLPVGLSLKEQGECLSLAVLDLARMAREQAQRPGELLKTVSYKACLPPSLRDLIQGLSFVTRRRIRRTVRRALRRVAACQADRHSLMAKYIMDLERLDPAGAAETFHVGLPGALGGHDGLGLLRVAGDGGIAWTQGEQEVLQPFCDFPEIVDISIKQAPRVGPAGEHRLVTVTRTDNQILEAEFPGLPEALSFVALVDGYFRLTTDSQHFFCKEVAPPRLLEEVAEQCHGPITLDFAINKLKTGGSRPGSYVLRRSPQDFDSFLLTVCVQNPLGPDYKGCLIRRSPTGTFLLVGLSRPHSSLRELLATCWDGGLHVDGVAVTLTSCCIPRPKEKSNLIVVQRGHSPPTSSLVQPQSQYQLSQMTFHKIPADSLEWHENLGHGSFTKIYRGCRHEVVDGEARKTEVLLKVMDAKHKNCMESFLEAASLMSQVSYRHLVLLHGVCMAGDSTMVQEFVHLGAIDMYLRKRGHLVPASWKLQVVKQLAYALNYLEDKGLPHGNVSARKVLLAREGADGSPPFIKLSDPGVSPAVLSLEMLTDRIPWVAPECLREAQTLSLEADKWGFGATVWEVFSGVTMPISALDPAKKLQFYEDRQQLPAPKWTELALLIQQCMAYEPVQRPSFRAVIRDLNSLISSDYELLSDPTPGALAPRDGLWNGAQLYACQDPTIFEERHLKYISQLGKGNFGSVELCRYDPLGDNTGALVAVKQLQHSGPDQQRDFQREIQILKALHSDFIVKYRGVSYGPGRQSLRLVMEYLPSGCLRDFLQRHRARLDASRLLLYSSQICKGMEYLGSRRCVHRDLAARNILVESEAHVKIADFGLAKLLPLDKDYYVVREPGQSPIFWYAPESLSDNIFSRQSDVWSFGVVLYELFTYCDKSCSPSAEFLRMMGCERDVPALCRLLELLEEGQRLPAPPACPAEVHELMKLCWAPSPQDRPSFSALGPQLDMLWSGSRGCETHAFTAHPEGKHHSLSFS
Description: as §1, §2

Sequence of JAK2 (O60674 whole entry): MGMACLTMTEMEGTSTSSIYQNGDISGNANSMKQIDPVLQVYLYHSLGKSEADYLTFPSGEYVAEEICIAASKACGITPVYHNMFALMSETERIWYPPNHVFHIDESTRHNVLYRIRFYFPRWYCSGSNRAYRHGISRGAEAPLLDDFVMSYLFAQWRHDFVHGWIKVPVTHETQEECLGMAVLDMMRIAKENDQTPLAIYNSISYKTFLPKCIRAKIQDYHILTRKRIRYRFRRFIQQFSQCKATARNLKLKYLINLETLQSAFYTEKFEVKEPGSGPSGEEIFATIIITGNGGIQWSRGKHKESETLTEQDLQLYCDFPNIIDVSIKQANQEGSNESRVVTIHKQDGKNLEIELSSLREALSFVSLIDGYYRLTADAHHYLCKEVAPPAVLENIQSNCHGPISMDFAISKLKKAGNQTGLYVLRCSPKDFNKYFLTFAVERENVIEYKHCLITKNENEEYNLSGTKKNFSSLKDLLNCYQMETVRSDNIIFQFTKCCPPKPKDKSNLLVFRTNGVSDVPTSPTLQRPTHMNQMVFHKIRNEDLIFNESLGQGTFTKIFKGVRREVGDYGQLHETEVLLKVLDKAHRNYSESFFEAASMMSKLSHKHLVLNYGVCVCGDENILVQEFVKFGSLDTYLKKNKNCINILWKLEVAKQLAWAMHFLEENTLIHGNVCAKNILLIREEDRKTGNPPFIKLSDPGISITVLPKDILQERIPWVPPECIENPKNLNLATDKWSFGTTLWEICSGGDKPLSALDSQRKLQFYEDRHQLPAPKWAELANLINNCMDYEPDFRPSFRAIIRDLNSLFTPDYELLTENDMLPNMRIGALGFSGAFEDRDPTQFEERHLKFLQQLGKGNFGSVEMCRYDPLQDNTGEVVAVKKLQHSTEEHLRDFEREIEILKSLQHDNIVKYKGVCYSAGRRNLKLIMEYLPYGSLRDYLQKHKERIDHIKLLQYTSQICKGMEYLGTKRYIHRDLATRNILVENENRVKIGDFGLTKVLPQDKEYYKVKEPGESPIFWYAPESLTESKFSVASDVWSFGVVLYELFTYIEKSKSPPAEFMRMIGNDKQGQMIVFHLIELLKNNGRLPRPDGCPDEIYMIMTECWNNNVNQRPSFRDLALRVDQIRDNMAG

SMILES: O=C(c1cc(-c2ncnc3[nH]ccc23)c[nH]1)N(CCC(F)(F)F)CC1CC1 [Compound 110]
- pKi (JAK2): > 7.00
- pKi (JAK3): > 7.00

SMILES: O=C(O)CC1(CC(=O)Nc2nc(-c3ncnc4[nH]ccc34)cs2)CCCC1 [Compound 143]
- pKi (JAK2): 6.30 to 7.00
- pKi (JAK3): 6.30 to 7.00

SMILES: N#CCCN(C(=O)c1cc(-c2ncnc3[nH]ccc23)c[nH]1)C1CCCC1 [Compound 139]
- pKi (JAK2): > 7.00
- pKi (JAK3): 6.30 to 7.00

SMILES: O=C(Cc1ccccc1F)Nc1nc(-c2ncnc3[nH]ccc23)cs1 [Compound 156]
- pKi (JAK2): > 7.00
- pKi (JAK3): 6.30 to 7.00

SMILES: O=C(Nc1nc(-c2ncnc3[nH]ccc23)cs1)C1CCCOC1 (centres unmarked) [Compound 61]
- pKi (JAK2): > 7.00
- pKi (JAK3): > 7.00

SMILES: CC(CC(=O)Nc1nc(-c2ncnc3[nH]ccc23)cs1)CC(C)(C)C (centres unmarked) [Compound 33]
- pKi (JAK2): > 7.00
- pKi (JAK3): 6.30 to 7.00

SMILES: O=C(O)C1CCCCC1C(=O)Nc1nc(-c2ncnc3[nH]ccc23)cs1 (centres unmarked) [Compound 144]
- pKi (JAK2): 6.30 to 7.00
- pKi (JAK3): 6.30 to 7.00
